# Test results published in publication PMC12038006, “Structure and mechanism of a mycobacterial isoniazid efflux pump MsRv1273c/72c with a degenerate nucleotide-binding site” (Nature Communications, 2025).
# Target: T1, MsRv1273c/72c (Mycolicibacterium smegmatis, UniProt A0R271+A0R272)
# T1 construct: gene MSMEG_5008
# Assay type: binding
# T1 sequence (A0R272 entry or part of it): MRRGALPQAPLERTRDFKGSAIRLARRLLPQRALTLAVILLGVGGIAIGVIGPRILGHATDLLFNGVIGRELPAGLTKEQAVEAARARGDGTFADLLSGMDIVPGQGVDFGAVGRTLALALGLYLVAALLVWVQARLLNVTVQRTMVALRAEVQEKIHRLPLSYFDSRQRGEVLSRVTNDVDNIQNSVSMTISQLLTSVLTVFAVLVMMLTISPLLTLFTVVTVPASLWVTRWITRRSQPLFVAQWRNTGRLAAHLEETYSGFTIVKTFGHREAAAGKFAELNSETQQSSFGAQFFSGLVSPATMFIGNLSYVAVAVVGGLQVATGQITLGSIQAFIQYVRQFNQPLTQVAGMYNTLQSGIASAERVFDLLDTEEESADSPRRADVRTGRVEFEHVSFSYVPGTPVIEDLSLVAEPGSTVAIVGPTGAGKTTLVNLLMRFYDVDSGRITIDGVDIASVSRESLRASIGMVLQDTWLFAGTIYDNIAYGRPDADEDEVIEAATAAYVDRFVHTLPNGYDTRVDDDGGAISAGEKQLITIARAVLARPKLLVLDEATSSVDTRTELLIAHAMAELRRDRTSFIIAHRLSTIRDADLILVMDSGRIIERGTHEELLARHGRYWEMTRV
# T1 sequence (A0R271 entry or part of it): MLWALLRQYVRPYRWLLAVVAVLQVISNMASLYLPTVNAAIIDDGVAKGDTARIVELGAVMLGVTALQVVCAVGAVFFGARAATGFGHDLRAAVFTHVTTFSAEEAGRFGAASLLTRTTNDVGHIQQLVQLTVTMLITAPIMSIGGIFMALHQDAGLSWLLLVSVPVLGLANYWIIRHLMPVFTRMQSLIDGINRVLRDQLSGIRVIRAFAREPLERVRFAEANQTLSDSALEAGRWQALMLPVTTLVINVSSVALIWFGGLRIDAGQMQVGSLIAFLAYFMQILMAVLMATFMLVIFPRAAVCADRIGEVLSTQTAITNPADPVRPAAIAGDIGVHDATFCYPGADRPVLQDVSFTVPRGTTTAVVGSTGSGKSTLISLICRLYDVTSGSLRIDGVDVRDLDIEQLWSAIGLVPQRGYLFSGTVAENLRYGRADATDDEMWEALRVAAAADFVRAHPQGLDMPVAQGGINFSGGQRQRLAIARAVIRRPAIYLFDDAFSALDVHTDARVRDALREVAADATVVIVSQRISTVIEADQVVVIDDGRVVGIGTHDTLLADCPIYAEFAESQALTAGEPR
row,Compound,cryo-EM structure
1,Nc1ncnc2c1ncn2[C@@H]1O[C@H](COP(=O)(O)OP(=O)(O)O)[C@@H](O)[C@H]1O [ADP],"In this structure, ADP binds at the consensus site"
2,Nc1ncnc2c1ncn2[C@@H]1O[C@H](COP(=O)(O)OP(=O)(O)NP(=O)(O)O)[C@@H](O)[C@H]1O [AMPPNP],"Though both NBSs bind AMPPNP, the NBDs are partially dimerized at the degenerate site"
3,Nc1ncnc2c1ncn2[C@@H]1O[C@H](COP(=O)(O)OP(=O)(O)OP(=O)(O)O)[C@@H](O)[C@H]1O [ATP],"the degenerate site is bound with an ATP, which has not been hydrolyzed"
